In patent US4959361A, “Triazolo(4,3-A)(1,4)benzodiazepines and thieno (3,2-F)(1,2,4)triazolo(4,3-A)(1,4)diazepine compounds which have useful activity as platelet activating factor (PAF) antagonists” (Hoffmann-La Roche Inc., priority 1988, dated 1990):
Read-outs that look alike come from different tables or passages of the source.

What was measured:
[1] = test system: PAF Induced Bronchoconstriction; test: PAF induced bronchoconstriction assay, intravenous testing; assay type: in vivo, guinea pig; conditions: for ED50: Cavia porcellus, iv, 1 min, i.v., 1 minute pretreatment, PAF 1 μg/kg i.v., read-out: Bronchoconstriction ID-50 i.v.; for % inhibition of bronchoconstriction: Table II (*), at 0. mg/kg i.v. (dose digit cut off)
Method: Male animals (Hartlet Strain, 400-500 g were anesthetized with urethane (2 g/kg, i.p.). Each animals' trachea was cannulated and the guinea pigs were respirated using a Harvard small animal rodent respirator (3.0 cc stroke volume, 40 breaths per min.). Tracheal pressure was recorded from a cannula inserted in the trachea and connected to a Statham pressure transducer.
The jugular vein was cannulated for administering compounds. Spontaneous breathing was arrested with succinylcholine (1.2 mg/kg, i.v.) administered 2 minutes prior to intravenous injection of platelet activating factor PAF).
For the intravenous testing, the guinea pig is given a 1-minute pretreatment with propranolol at a dose of 0.1 mg/kg intravenously. The test compound is administered with a 1 minute pretreatment prior to intravenous challenge with PAF. The animal is then challenged with a 1 μg/kg intravenous dose of PAF and the change in tracheal pressure is measured.
The change in tracheal pressure is determined by subtracting the steady state baseline achieved after administration of succinylcholine from the peak broncho. constriction seen after challenge with PAF. The mean is calculated for each test compound and compared to the mean of the control animals to give the percent inhibition of bronchoconstriction. The standard error is calculated as the standard error of the mean.

[2] = molecular target: T1, PAF-binding, dog platelets (Canis lupus familiaris, UniProt A0A8I3NSH0); test: PAF binding assay (radiolabelled H-PAF, washed dog platelets); conditions: 10 minutes at room temperature, read-out: PAF-binding IC-50
T1 construct: dog platelets; from tissue; host or cells: washed platelets from citrated dog blood
T1 sequence (A0A8I3NSH0 1-343): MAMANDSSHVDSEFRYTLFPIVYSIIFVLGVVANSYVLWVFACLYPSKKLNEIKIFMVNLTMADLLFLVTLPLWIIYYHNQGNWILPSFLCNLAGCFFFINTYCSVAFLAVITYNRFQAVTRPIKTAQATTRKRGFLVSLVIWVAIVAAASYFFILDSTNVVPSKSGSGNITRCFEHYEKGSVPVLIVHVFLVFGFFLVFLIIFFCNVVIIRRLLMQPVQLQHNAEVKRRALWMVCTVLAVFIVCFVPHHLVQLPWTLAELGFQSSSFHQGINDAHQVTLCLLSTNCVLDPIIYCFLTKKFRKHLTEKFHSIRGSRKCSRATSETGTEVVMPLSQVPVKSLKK
Method: The binding assay was done in […] polyethylene microcentrifuge tubes (Beckman) containing 50 μl of an oil mixture of 2 parts Siliconol AR200 (Serva): 1 part Silicone Fluid (Arthur H. Thoma). Buffer, standards, or analogs (150 μl total volume) were added to the tubes. Radiolabelled H-PAF (50 μl) was then added to the tubes. The reaction was started by the addition of 50 μl of dog platelets (2×10^7 platelets). The tubes were capped, inverted several times to mix, and incubated for 10 minutes at room temperature. The platelets were separated from the incubation mixture by centrifuging 1 minute in a Beckman Microfuge B centrifuge. The tip of the microfuge tube was cut off, and the platelets were washed out of the tip with 200 μl of 50% methanol (Burdick and Jackson). Aquasol (NEN, 10 ml) was added and the radioactivity in the samples was determined using an LS 8100 Beckman liquid scintillation counter linked to a Techtran tape recorder Data was processed through an in-house computer system. Alternatively, radioactivity was determined using a Searle Mark III liquid scintillation counter linked to a Iso-Data microprocessor.
(b) preparation of platelets
Blood was collected from anesthesized or unanesthesized dogs into 50 ml plastic centrifuge tubes containing 3.8% sodium citrate as the anticoagulant (1 volume of citrate/9 volumes of blood). The red cells were removed by centrifugation for 15 minutes at 600 rpm (100-125 g) at room temperature. An aliquot of the supernatant platelet rich plasma (PRP) was saved for cell counting and the remainder was acidified to pH 6.5 with 0.15M citric acid. The platelet pellet was obtained after a 10 minute centrifugation at 2000 rpm (1000 g) at room temperature. Washed platelets were prepared by resuspending the platelet pellet once with pBS containing 1 mM EDTA, centrifuging as noted, and then resuspending the platelets in 0.1% BSA pBS. An aliquot of the washed platelets was counted. Platelets used for binding assays were diluted to 2×10^7 platelets/assay tube (4×10^8 platelets/ml). platelet countinq was done using a Royco Cell-Crit 921.

[3] = test system: PAF Induced Bronchoconstriction; test: PAF induced bronchoconstriction assay, oral testing; assay type: in vivo, guinea pig; conditions: Cavia porcellus, 2 hr; for inhibition in vivo at 3 mg/kg: Table II (*), 3 mg/kg p.o.; for ED50: p.o., read-out: Bronchoconstriction ID-50 p.o. 2 hr
[4] = Table I, triazolothienodiazepines
[5] = po, Table I, at a dose of 0.3 mg/kg p.o.
[6] = Table II, triazolobenzodiazepines
[7] = Table II (**), at an oral dose of 0.3 mg/kg

Cc1nnc2n1-c1sc(C#CCn3c4ccccc4c(=O)c4ccccc43)cc1C(c1ccccc1Cl)=NC2
ED50 ([1]; Table I): 0.01 mg/kg

Cc1nnc2n1-c1sc(C#CCn3nc4ccccn4c3=O)cc1C(c1ccccc1Cl)=NC2
IC50 [2, 4]: 11 nM
inhibition in vivo at 0.3 mg/kg [3, 5]: 79%

Cc1nnc2n1-c1ccc(C#CCN3C(=O)c4cccc5cccc(c45)C3=O)cc1C(c1ccccc1Cl)=NC2
inhibition in vivo at 3 mg/kg ([3]; po): 99%

Cc1nnc2n1-c1sc(C#CCN3C(=O)COc4cc(F)ccc43)cc1C(c1ccccc1Cl)=NC2
ED50 ([1]; Table I): 0.005 mg/kg
ED50 ([3]; po, Table I): 0.016 mg/kg

Cc1nnc2n1-c1sc(C#CCn3c(=O)c4ccccc4c(=O)c4ccccc43)cc1C(c1ccccc1Cl)=NC2
ED50 ([1]; Table I): 0.008 mg/kg
ED50 ([3]; po, Table I): 0.026 mg/kg

Cc1nnc2n1-c1ccc(C#CCn3cnc4ccccc4c3=O)cc1C(c1ccccc1F)=NC2
IC50 [2, 6]: 70 nM

Cc1nnc2n1-c1ccc(C#CCN3C(=O)C(=O)c4ccccc43)cc1C(c1ccccc1Cl)=NC2
IC50 [2, 6]: 350 nM
% inhibition of bronchoconstriction [1]: 100%

Cc1nnc2n1-c1sc(C#CCn3c(=O)n(C)c(=O)c4ccccc43)cc1C(c1ccccc1Cl)=NC2
IC50 [2, 4]: 0.6 nM
ED50 ([1]; Table I): 0.007 mg/kg
ED50 ([3]; po, Table I): 0.017 mg/kg

Cc1nnc2n1-c1sc(C#CCN3C(=O)c4cccc5cccc3c45)cc1C(c1ccccc1Cl)=NC2
IC50 [2, 4]: 5 nM
ED50 ([1]; Table I): < 0.1 mg/kg
ED50 ([3]; po, Table I): 0.042 mg/kg

Cc1nnc2n1-c1sc(C#CCn3c(=O)n(C)c4ccccc43)cc1C(c1ccccc1Cl)=NC2
IC50 [2, 4]: 0.3 nM
ED50 ([1]; Table I): 0.004 mg/kg
ED50 ([3]; po, Table I): 0.043 mg/kg

Cc1nnc2n1-c1ccc(C#CCOc3ccccc3)cc1C(c1ccccc1Cl)=NC2
IC50 [2, 6]: < 10 nM
inhibition in vivo at 0.3 mg/kg [3, 7]: 37%

Cc1nnc2n1-c1ccc(C#CCN3C(=O)CN(C)C(=O)c4ccccc43)cc1C(c1ccccc1F)=NC2
IC50 [2, 6]: 160 nM

Cc1nnc2n1-c1ccc(C#CCN3C(=O)Cc4ccccc43)cc1C(c1ccccc1Cl)=NC2
IC50 [2, 6]: < 10 nM

Cc1nnc2n1-c1ccc(C#CCN3C(=O)CSc4ccccc43)cc1C(c1ccccc1F)=NC2
% inhibition of bronchoconstriction [1]: 99%
inhibition in vivo at 3 mg/kg ([3]; po): 99%

Cc1nnc2n1-c1ccc(C#CCN3Cc4ccccc4C3=O)cc1C(c1ccccc1F)=NC2
IC50 [2, 6]: 225 nM
inhibition in vivo at 3 mg/kg ([3]; po): 100%

Cc1nnc2n1-c1ccc(C#CCn3ncc4ccccc43)cc1C(c1ccccc1F)=NC2
IC50 [2, 6]: < 10 nM

Cc1nnc2n1-c1ccc(C#CCn3c(=O)oc4ccccc43)cc1C(c1ccccc1Cl)=NC2
IC50 [2, 6]: 20 nM
inhibition in vivo at 3 mg/kg ([3]; po): 91%

Cc1nnc2n1-c1ccc(C#CCN3C(=O)c4ccccc4S3(=O)=O)cc1C(c1ccccc1F)=NC2
IC50 [2, 6]: 150 nM

Cc1nnc2n1-c1ccc(C#CCOc3cccnc3)cc1C(c1ccccc1Cl)=NC2
IC50 [2, 6]: 130 nM
ED50 ([1]; Table II): 0.005 mg/kg

Cc1nnc2n1-c1sc(C#CCn3c(=O)c4cc(Cl)ccc4c4ccc(Cl)cc43)cc1C(c1ccccc1Cl)=NC2
ED50 ([1]; Table I): 0.008 mg/kg

Cc1nnc2n1-c1sc(C#CCn3cnc4ccccc43)cc1C(c1ccccc1Cl)=NC2
IC50 [2, 4]: 4.5 nM
ED50 ([3]; po, Table I): 0.12 mg/kg

Cc1nnc2n1-c1ccc(C#CCn3ccc4ccccc43)cc1C(c1ccccc1F)=NC2
ED50 ([3]; po, Table II): > 0.3 mg/kg

Cc1nnc2n1-c1sc(C#CCOc3ccccc3)cc1C(c1ccccc1Cl)=NC2
ED50 ([1]; Table I): 0.006 mg/kg
inhibition in vivo at 0.3 mg/kg [3, 5]: 67%

Cc1nnc2n1-c1ccc(C#CCn3cnc4ccccc43)cc1C(c1ccccc1Cl)=NC2
IC50 [2, 6]: 15 nM

Cc1nnc2n1-c1ccc(C#CCN3C(=O)COc4ccccc43)cc1C(c1ccccc1F)=NC2
% inhibition of bronchoconstriction [1]: 100%
inhibition in vivo at 3 mg/kg ([3]; po): 98%

Cc1nnc2n1-c1ccc(C#CCCN3C(=O)c4ccccc4C3=O)cc1C(c1ccccc1F)=NC2
inhibition in vivo at 0.3 mg/kg [3, 7]: 54%

Cc1nnc2n1-c1ccc(C#CCn3c(=O)c4c(ncn4C)n(C)c3=O)cc1C(c1ccccc1F)=NC2
ED50 ([3]; po, Table II): > 0.3 mg/kg

Cc1nnc2n1-c1ccc(C#CCN3C(=O)C4CCCN4C3=O)cc1C(c1ccccc1F)=NC2 (centres unmarked)
IC50 [2, 6]: 200 nM
inhibition in vivo at 3 mg/kg ([3]; po): 99%

Cc1nnc2n1-c1sc(C#CCN3C(=O)Cc4ccccc43)cc1C(c1ccccc1Cl)=NC2
IC50 [2, 4]: 3 nM
ED50 ([3]; po, Table I): 0.05 mg/kg

Cc1nnc2n1-c1ccc(C#CCN3C(=O)C4CC=CCC4C3=O)cc1C(c1ccccc1F)=NC2 (centres unmarked)
IC50 [2, 6]: 50 nM
inhibition in vivo at 3 mg/kg ([3]; po): 99%

Cc1nnc2n1-c1sc(C#CCN3C(=O)c4ccccc4S3(=O)=O)cc1C(c1ccccc1Cl)=NC2
IC50 [2, 4]: 4 nM
inhibition in vivo at 0.3 mg/kg [3, 5]: 27%

Cc1nnc2n1-c1sc(C#C[Si](C)(C)C)cc1C(c1ccccc1Cl)=NC2
IC50 [2, 4]: 20 nM
ED50 ([1]; Table I): 0.28 mg/kg

Cc1nnc2n1-c1sc(C#Cc3ccccc3)cc1C(c1ccccc1Cl)=NC2
IC50 [2, 4]: 100 nM
ED50 ([1]; Table I): > 0.1 mg/kg

Cc1nnc2n1-c1sc(C#CCn3c(=O)c4ccccc4c4ccccc43)cc1C(c1ccccc1Cl)=NC2O (centres unmarked)
IC50 [2, 4]: 25 nM
ED50 ([1]; Table I): 0.022 mg/kg

Cc1nnc2n1-c1ccc(C#CCn3nc4ccccn4c3=O)cc1C(c1ccccc1F)=NC2
IC50 [2, 6]: 350 nM
inhibition in vivo at 3 mg/kg ([3]; po): 43%

Cc1nnc2n1-c1ccc(C#CCN3C(=O)CCc4ccccc43)cc1C(c1ccccc1F)=N[C@H]2C
IC50 [2, 6]: 6 nM
ED50 ([1]; Table II): 0.008 mg/kg

O=C1c2ccccc2C(=O)N1CC#Cc1ccc2c(c1)C(c1ccccc1F)=NCc1nnc(C(F)(F)F)n1-2
ED50 ([1]; Table II): 0.44 mg/kg
ED50 ([3]; po, Table II): 0.3 mg/kg

Cc1nnc2n1-c1sc(C#CCN3CCc4ccccc4C3=O)cc1C(c1ccccc1Cl)=NC2
ED50 ([1]; Table I): 0.008 mg/kg
ED50 ([3]; po, Table I): 0.016 mg/kg

Cc1nnc2n1-c1ccc(C#CCN3C(=O)Cc4ccccc43)cc1C(c1ccccc1F)=NC2
IC50 [2, 6]: < 10 nM
inhibition in vivo at 0.3 mg/kg [3, 7]: 32%

Cc1nnc2n1-c1ccc(C#CCn3c(C)nc4ccccc4c3=O)cc1C(c1ccccc1F)=NC2
IC50 [2, 6]: 50 nM

Cc1c(C)c2c(c(C)c1O)CCC(C)(C#Cc1cc3c(s1)-n1c(C)nnc1CN=C3c1ccccc1Cl)O2 (centres unmarked)
IC50 [2, 4]: 45 nM
ED50 ([1]; Table I): 0.027 mg/kg

Cc1nnc2n1-c1sc(C#CCn3c(=O)c4ccccc4c4ccccc43)cc1C(c1ccccc1Cl)=[N+]([O-])C2
IC50 [2, 4]: 15 nM
ED50 ([1]; Table I): 0.017 mg/kg
